# Source: patent US20240317721A1, “PYRAZOLYL DERIVATIVES AS INHIBITORS OF THE KRAS MUTANT PROTEIN” (NOVARTIS AG, priority 2021, published 2024)
# Biological target: KRasG12C (M1-K169, biotinylated on the N-terminus) (Homo sapiens (Human), UniProt P01116, G12C)
# Assay: Covalent competition assay: scintillation proximity assay (SPA) quantifying covalent modification of KRASG12C
# Type: binding
# Details: competition with radiolabeled covalent probe (Compound B/Compound A), 2 hours incubation, 10 nM KRasG12C
# In short: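 Scintillation proximity readout after streptavidin bead capture (30 min) of biotinylated KRasG12C(M1-K169):GDP, 10 nM final, which was covalently labelled over 2 h by 25 nM radio-probe plus 475 nM cold probe unless blocked by compound.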
row,Compound,IC50
1,"C=CC(=O)N1CC2(CC(n3nc(N4CCN(C5COC5)C[C@]4(C)CCOC)c(-c4c(Cl)c(C)cc5[nH]ncc45)c3C)C2)C1 (single isomer, unassigned) [Example 86b]",8 nM
2,"C=CC(=O)N1CC2(CC(n3nc(N4CCN(C5CCOCC5)C[C@]4(C)CCOC)c(-c4c(Cl)c(C)cc5[nH]ncc45)c3C)C2)C1 (single isomer, unassigned) [Example 87a]",13 nM
3,"C=CC(=O)N1CC2(CC(n3nc(N4CCN(C5CCOCC5)C[C@]4(C)CCOC)c(-c4c(Cl)c(C)cc5[nH]ncc45)c3C)C2)C1 (single isomer, unassigned) [Example 87b]",1500 nM
4,"C=CC(=O)N1CC2(CC(n3nc(N4CCCC4(C)C)c(-c4c(Cl)c(C)cc5[nH]ncc45)c3C)C2)C1 (single isomer, unassigned) [Example 88a, 1-(6-(4-(5-chloro-6-methyl-1H-indazol-4-yl)-3-(2,2-dimethylpyrrolidin-1-yl)-5-methyl-1H-pyrazol-1-yl)-2-azaspiro[3.3]heptan-2-yl)prop-2-en-1-one]",> 5000 nM
5,"C=CC(=O)N1CC2(CC(n3nc(N4CCCC4(C)C)c(-c4c(Cl)c(C)cc5[nH]ncc45)c3C)C2)C1 (single isomer, unassigned) [Example 88b, 1-(6-(4-(5-chloro-6-methyl-1H-indazol-4-yl)-3-(2,2-dimethylpyrrolidin-1-yl)-5-methyl-1H-pyrazol-1-yl)-2-azaspiro[3.3]heptan-2-yl)prop-2-en-1-one]",467 nM
6,"C=CC(=O)N1CC2(CC(n3nc(N4CCN(C[C@@H]5COCCO5)C[C@]4(C)CC)c(-c4c(Cl)c(Cl)cc5[nH]ncc45)c3C)C2)C1 (single isomer, unassigned) [Example 89a]",3400 nM
7,"C=CC(=O)N1CC2(CC(n3nc(N4CCN(C[C@@H]5COCCO5)C[C@]4(C)CC)c(-c4c(Cl)c(Cl)cc5[nH]ncc45)c3C)C2)C1 (single isomer, unassigned) [Example 89b]",< 5 nM
8,"C=CC(=O)N1CC2(CC(n3nc(N4CCN(C5CCOCC5)C[C@]4(C)COC)c(-c4c(Cl)c(C)cc5[nH]nc(N)c45)c3C)C2)C1 (single isomer, unassigned) [Example 90a]",23 nM
9,"C=CC(=O)N1CC2(CC(n3nc(N4CCN(C5CCOCC5)C[C@]4(C)COC)c(-c4c(Cl)c(C)cc5[nH]nc(N)c45)c3C)C2)C1 (single isomer, unassigned) [Example 90b]",558 nM
10,"C=CC(=O)N1CC2(CC(n3nc(N4CCC5(CN(C6COC6)C5)CC4(C)C)c(-c4c(Cl)c(C)cc5[nH]ncc45)c3C)C2)C1 (single isomer, unassigned) [Example 91a, 1-(6-(4-(5-chloro-6-methyl-1H-indazol-4-yl)-3-(6,6-dimethyl-2-(oxetan-3-yl)-2,7-diazaspiro[3.5]nonan-7-yl)-5-methyl-1H-pyrazol-1-yl)-2-azaspiro[3.3]heptan-2-yl)prop-2-en-1-one]",2900 nM
11,"C=CC(=O)N1CC2(CC(n3nc(N4CCC5(CN(C6COC6)C5)CC4(C)C)c(-c4c(Cl)c(C)cc5[nH]ncc45)c3C)C2)C1 (single isomer, unassigned) [Example 91b, 1-(6-(4-(5-chloro-6-methyl-1H-indazol-4-yl)-3-(6,6-dimethyl-2-(oxetan-3-yl)-2,7-diazaspiro[3.5]nonan-7-yl)-5-methyl-1H-pyrazol-1-yl)-2-azaspiro[3.3]heptan-2-yl)prop-2-en-1-one]",13 nM
12,"C=CC(=O)N1CC2(CC(n3nc(N4CCC5(CN(C6COC6)C5)CC4(C)C)c(-c4c(Cl)c(Cl)cc5[nH]ncc45)c3C)C2)C1 (single isomer, unassigned) [Example 92a, 1-(6-(4-(5,6-dichloro-1H-indazol-4-yl)-3-(6,6-dimethyl-2-(oxetan-3-yl)-2,7-diazaspiro[3.5]nonan-7-yl)-5-methyl-1H-pyrazol-1-yl)-2-azaspiro[3.3]heptan-2-yl)prop-2-en-1-one]",2100 nM
13,"C=CC(=O)N1CC2(CC(n3nc(N4CCC5(CN(C6COC6)C5)CC4(C)C)c(-c4c(Cl)c(Cl)cc5[nH]ncc45)c3C)C2)C1 (single isomer, unassigned) [Example 92b, 1-(6-(4-(5,6-dichloro-1H-indazol-4-yl)-3-(6,6-dimethyl-2-(oxetan-3-yl)-2,7-diazaspiro[3.5]nonan-7-yl)-5-methyl-1H-pyrazol-1-yl)-2-azaspiro[3.3]heptan-2-yl)prop-2-en-1-one]",7 nM
14,"C=CC(=O)N1CC2(CC(n3nc(N4CCC5(CN(C6COC6)C5)CC45CCC5)c(-c4c(Cl)c(C)cc5[nH]ncc45)c3C)C2)C1 (single isomer, unassigned) [Example 93a, 1-(6-(4-(5-chloro-6-methyl-1H-indazol-4-yl)-5-methyl-3-(2-(oxetan-3-yl)-2,10-diazadispiro[3.1.3^6.3^4]dodecan-10-yl)-1H-pyrazol-1-yl)-2-azaspiro[3.3]heptan-2-yl)prop-2-en-1-one]",> 5000 nM
15,"C=CC(=O)N1CC2(CC(n3nc(N4CCC5(CN(C6COC6)C5)CC45CCC5)c(-c4c(Cl)c(C)cc5[nH]ncc45)c3C)C2)C1 (single isomer, unassigned) [Example 93b, 1-(6-(4-(5-chloro-6-methyl-1H-indazol-4-yl)-5-methyl-3-(2-(oxetan-3-yl)-2,10-diazadispiro[3.1.3^6.3^4]dodecan-10-yl)-1H-pyrazol-1-yl)-2-azaspiro[3.3]heptan-2-yl)prop-2-en-1-one]",12 nM
16,"C=CC(=O)N1CC2(CC(n3nc(N4CCN(C(C)=O)C[C@@H]4CC)c(-c4c(Cl)c(C)cc5[nH]ncc45)c3C)C2)C1 (single isomer, unassigned) [Example 94a]",> 50000 nM
17,"C=CC(=O)N1CC2(CC(n3nc(N4CCN(C(C)=O)C[C@@H]4CC)c(-c4c(Cl)c(C)cc5[nH]ncc45)c3C)C2)C1 (single isomer, unassigned) [Example 94b]",64 nM
18,"C=CC(=O)N1CC2(CC(n3nc(N4CCN(C(C)=O)C[C@@H]4C(C)C)c(-c4c(Cl)c(C)cc5[nH]ncc45)c3C)C2)C1 (single isomer, unassigned) [Example 95a]",> 5000 nM
19,"C=CC(=O)N1CC2(CC(n3nc(N4CCN(C(C)=O)C[C@@H]4C(C)C)c(-c4c(Cl)c(C)cc5[nH]ncc45)c3C)C2)C1 (single isomer, unassigned) [Example 95b]",373 nM
20,"C=CC(=O)N1CC2(CC(n3nc(N4CCC(N(C)C(=O)COC)CC4(C)C)c(-c4c(Cl)c(C)cc5[nH]ncc45)c3C)C2)C1 (single isomer, unassigned) [Example 96a, N-(1-(1-(2-acryloyl-2-azaspiro[3.3]heptan-6-yl)-4-(5-chloro-6-methyl-1H-indazol-4-yl)-5-methyl-1H-pyrazol-3-yl)-2,2-dimethylpiperidin-4-yl)-2-methoxy-N-methylacetamide]",> 5000 nM
21,"C=CC(=O)N1CC2(CC(n3nc(N4CCC(N(C)C(=O)COC)CC4(C)C)c(-c4c(Cl)c(C)cc5[nH]ncc45)c3C)C2)C1 (single isomer, unassigned) [Example 96b, N-(1-(1-(2-acryloyl-2-azaspiro[3.3]heptan-6-yl)-4-(5-chloro-6-methyl-1H-indazol-4-yl)-5-methyl-1H-pyrazol-3-yl)-2,2-dimethylpiperidin-4-yl)-2-methoxy-N-methylacetamide]",11 nM
22,"C=CC(=O)N1CC2(CC(n3nc(N4CCC(N(C)C(=O)COC)CC4(C)C)c(-c4c(Cl)c(C)cc5[nH]ncc45)c3C)C2)C1 (single isomer, unassigned) [Example 97a, N-(1-(1-(2-acryloyl-2-azaspiro[3.3]heptan-6-yl)-4-(5-chloro-6-methyl-1H-indazol-4-yl)-5-methyl-1H-pyrazol-3-yl)-2,2-dimethylpiperidin-4-yl)-2-methoxy-N-methylacetamide]",300 nM
23,"C=CC(=O)N1CC2(CC(n3nc(N4CCC(N(C)C(=O)COC)CC4(C)C)c(-c4c(Cl)c(C)cc5[nH]ncc45)c3C)C2)C1 (single isomer, unassigned) [Example 97b, N-(1-(1-(2-acryloyl-2-azaspiro[3.3]heptan-6-yl)-4-(5-chloro-6-methyl-1H-indazol-4-yl)-5-methyl-1H-pyrazol-3-yl)-2,2-dimethylpiperidin-4-yl)-2-methoxy-N-methylacetamide]",1700 nM
24,"C=CC(=O)N1CC2(CC(n3nc(N4CCC(C(=O)N(C)C)CC4(C)C)c(-c4c(Cl)c(C)cc5[nH]ncc45)c3C)C2)C1 (single isomer, unassigned) [Example 98b, 1-(1-(2-acryloyl-2-azaspiro[3.3]heptan-6-yl)-4-(5-chloro-6-methyl-1H-indazol-4-yl)-5-methyl-1H-pyrazol-3-yl)-N,N,2,2-tetramethylpiperidine-4-carboxamide]",19 nM
25,"C=CC(=O)N1CC2(CC(n3nc(N4CCC(C(=O)N(C)C)CC4(C)C)c(-c4c(Cl)c(C)cc5[nH]ncc45)c3C)C2)C1 (single isomer, unassigned) [Example 99a, 1-(1-(2-acryloyl-2-azaspiro[3.3]heptan-6-yl)-4-(5-chloro-6-methyl-1H-indazol-4-yl)-5-methyl-1H-pyrazol-3-yl)-N,N,2,2-tetramethylpiperidine-4-carboxamide]",2900 nM
26,"C=CC(=O)N1CC2(CC(n3nc(N4CCN(Cc5ccccc5)CC45CCC5)c(-c4c(Cl)c(C)cc5[nH]ncc45)c3C)C2)C1 (single isomer, unassigned) [Example 100a, 1-(6-(3-(8-benzyl-5,8-diazaspiro[3.5]nonan-5-yl)-4-(5-chloro-6-methyl-1H-indazol-4-yl)-5-methyl-1H-pyrazol-1-yl)-2-azaspiro[3.3]heptan-2-yl)prop-2-en-1-one]",> 5000 nM
27,"C=CC(=O)N1CC2(CC(n3nc(N4CCN(Cc5ccccc5)CC45CCC5)c(-c4c(Cl)c(C)cc5[nH]ncc45)c3C)C2)C1 (single isomer, unassigned) [Example 100b, 1-(6-(3-(8-benzyl-5,8-diazaspiro[3.5]nonan-5-yl)-4-(5-chloro-6-methyl-1H-indazol-4-yl)-5-methyl-1H-pyrazol-1-yl)-2-azaspiro[3.3]heptan-2-yl)prop-2-en-1-one]",86 nM
